Reference: patent US20060069132A1, “Azolecarboxamide herbicides” (priority 2004, published 2006)

Legend:
[1] = tested on: barnyardgrass; test: Test B pre-/postemergence herbicide test; type: in vivo, Echinochloa crus-galli; details: for Plant response rating (0 to 100 scale), Barnyardgrass: 0 is no effect
Method in brief: (§1)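 Plants compared with untreated controls 13–15 days post-treatment and given a visual 0–100 injury score. Applications: preemergence to seeds; postemergence at 1- to 4-leaf (2–18 cm); paddy species flooded, 2-leaf stage. Vehicle non-phytotoxic, surfactant included.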

[2] = tested on: Surinam grass; test: Test B pre-/postemergence herbicide test; type: in vivo, Urochloa decumbens; details: for Plant response rating (0 to 100 scale), Surinam Grass: 0 is no effect
Method in brief: (§2)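 Flooded paddy rice and barnyardgrass were treated at the 2-leaf stage; upland plantings received compound either on sown seed or on 1- to 4-leaf seedlings. All were kept 13–15 days in a greenhouse and scored visually, 0–100, relative to untreated plants.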

[3] = tested on: cocklebur; test: Test B pre-/postemergence herbicide test; type: in vivo, Xanthium strumarium; details: for Plant response rating (0 to 100 scale), Cocklebur: 0 is no effect
Method in brief: as §1

[4] = tested on: giant foxtail; test: Test B pre-/postemergence herbicide test; type: in vivo, Setaria faberi; details: for Plant response rating (0 to 100 scale), Foxtail, Giant: 0 is no effect
Method in brief: as §2

[5] = tested on: lambsquarters; test: Test B pre-/postemergence herbicide test; type: in vivo, Chenopodium album; details: for Plant response rating (0 to 100 scale), Lambsquarters: 0 is no effect
Method in brief: as §2

[6] = tested on: morningglory; test: Test B pre-/postemergence herbicide test; type: in vivo, Ipomoea coccinea
Method in brief: as §1

[7] = tested on: pigweed; test: Test B pre-/postemergence herbicide test; type: in vivo, Amaranthus retroflexus; details: for Plant response rating (0 to 100 scale), Pigweed: 0 is no effect
Method in brief: as §2

[8] = tested on: velvetleaf; test: Test B pre-/postemergence herbicide test; type: in vivo, Abutilon theophrasti; details: for Plant response rating (0 to 100 scale), Velvetleaf: 0 is no effect, preemergence
Method in brief: as §2

[9] = tested on: blackgrass; test: Test B postemergence herbicide test; type: in vivo, Alopecurus myosuroides
Method in brief: (§3)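 Formulated test chemicals went onto postemergence plants measuring 2 to 18 cm, at one to four leaves. For the paddy assay, species had reached two leaves. Scoring took place 13–15 days later by eye, relative to untreated plants, using 0 for no effect up to 100 for full control.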

[10] = tested on: wheat; test: Test B postemergence herbicide test; type: in vivo, Triticum aestivum; design: key to Wheat plant response rating: 0 = no effect, 100 = complete control
Method in brief: (§4)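 After treating 2-leaf paddy plants or 2–18 cm postemergence plants (1 to 4 leaves) with formulated chemical, researchers kept them in a greenhouse for 13–15 days. Effects were judged visually versus controls: 0 indicates none, 100 total control.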

[11] = tested on: wild oat; test: Test B postemergence herbicide test; type: in vivo, Avena fatua
Method in brief: as §4

[12] = tested on: rice; test: Test B flooded paddy test; type: in vivo, Oryza sativa; details: 1000 g ai/ha, scale 0 to 100 (0 no effect, 100 complete control)
Method in brief: as §4

[13] = tested on: small flower umbrella sedge; test: Test B flooded paddy test; type: in vivo, Cyperus difformis; details: 1000 g ai/ha, scale 0 to 100 (0 no effect, 100 complete control)
Method in brief: as §3

[14] = tested on: ducksalad; test: Test B flooded paddy test; type: in vivo, Heteranthera limosa; details: 1000 g ai/ha, scale 0 to 100 (0 no effect, 100 complete control)
Method in brief: as §3

[15] = tested on: barnyardgrass; test: Test B flooded paddy test; type: in vivo, Echinochloa crus-galli; details: 1000 g ai/ha, scale 0 to 100 (0 no effect, 100 complete control)
Method in brief: as §3

[16] = 125 g ai/ha, 100 is complete control, preemergence
[17] = 125 g ai/ha, visual rating, scale 0 (no effect) to 100 (complete control), postemergence
[18] = 500 g ai/ha, visual rating, 0 = no effect, 100 = complete control, preemergence
[19] = postemergence, 500 g ai/ha, scale 0 to 100, 0 is no effect, 100 is complete control
[20] = 125 g ai/ha, 100 is complete control
[21] = Postemergence, 500 g ai/ha, scale 0 (no effect) to 100 (complete control)
[22] = postemergence, 125 g ai/ha, scale 0 to 100

## CCC1=NN(C(C)(C)C)CC1C(=O)Nc1cc(C(=O)N2CCCC2)ccc1F (racemic) [Compound 341]
[1]; [16]
  Plant response rating (0 to 100 scale), Barnyardgrass: 80
[1]; [17]
  Barnyardgrass plant response rating: 10
[1]; [18]
  Plant response rating, Barnyardgrass: 100
[1]; [19]
  Barnyardgrass plant response rating: 20
[2]; [16]
  Plant response rating (0 to 100 scale), Surinam Grass: 100
[2]; [17]
  Surinam Grass plant response rating: 10
[2]; [18]
  Plant response rating, Surinam Grass: 100
[2]; [19]
  Surinam Grass plant response rating: 20
[3]; [16]
  Plant response rating (0 to 100 scale), Cocklebur: 40
[3]; [17]
  Cocklebur plant response rating: 10
[3]; [18]
  Plant response rating, Cocklebur: 100
[3]; [19]
  Cocklebur plant response rating: 20
[4]; [16]
  Plant response rating (0 to 100 scale), Foxtail, Giant: 50
[4]; [17]
  Foxtail, Giant plant response rating: 30
[4]; [18]
  Plant response rating, Foxtail, Giant: 90
[4]; [19]
  Foxtail, Giant plant response rating: 30
[5]; [16]
  Plant response rating (0 to 100 scale), Lambsquarters: 100
[5]; [17]
  Lambsquarters plant response rating: 30
[5]; [18]
  Plant response rating, Lambsquarters: 100
[5]; [19]
  Lambsquarters plant response rating: 100
[6]; [17]
  Morningglory plant response rating: 20
[6]; [18]
  Plant response rating, Morningglory: 30
[6]; [19]
  Morningglory plant response rating: 40
[7]; [16]
  Plant response rating (0 to 100 scale), Pigweed: 90
[7]; [17]
  Pigweed plant response rating: 30
[7]; [18]
  Plant response rating, Pigweed: 100
[7]; [19]
  Pigweed plant response rating: 60
[8]; [20]
  Plant response rating (0 to 100 scale), Velvetleaf: 60
[8]; [17]
  Velvetleaf plant response rating: 20
[8]; [19]
  Velvetleaf plant response rating: 30
[9]; [17]
  Blackgrass plant response rating: 10
[9]; [19]
  Blackgrass plant response rating: 20
[10]; [17]
  Wheat plant response rating: 10
[10]; [19]
  Wheat plant response rating: 20
[11]; [17]
  Oat, Wild plant response rating: 0
[11]; [19]
  Oat, Wild plant response rating: 30
[12]
  Rice plant response rating: 70
[13]
  Sedge, Umbrella plant response rating: 80
[14]
  Ducksalad plant response rating: 90
[15]
  Barnyardgrass plant response rating: 90

## C#CCOc1cccc(NC(=O)c2cc(C(C)(C)C)nn2CC)c1 [Compound 411]
[1]; [16]
  Plant response rating (0 to 100 scale), Barnyardgrass: 60
[1]; Postemergence, 125 g ai/ha, scale 0 (no effect) to 100 (complete control)
  Barnyardgrass plant response rating: 0
[1]; [21]
  Barnyardgrass plant response rating: 30
[2]; [16]
  Plant response rating (0 to 100 scale), Surinam Grass: 10
[2]; [21]
  Surinam Grass plant response rating: 10
[2]; [22]
  Surinam Grass plant response rating: 0
[3]; [16]
  Plant response rating (0 to 100 scale), Cocklebur: 0
[3]; [21]
  Cocklebur plant response rating: 60
[3]; [22]
  Cocklebur plant response rating: 0
[4]; [16]
  Plant response rating (0 to 100 scale), Foxtail, Giant: 10
[4]; [21]
  Foxtail, Giant plant response rating: 30
[4]; [22]
  Foxtail, Giant plant response rating: 20
[5]; [16]
  Plant response rating (0 to 100 scale), Lambsquarters: 50
[5]; [21]
  Lambsquarters plant response rating: 90
[5]; [22]
  Lambsquarters plant response rating: 20
[6]; 125 g ai/ha, 0 is no effect, 100 is complete control, preemergence
  Plant response rating (0 to 100 scale), Morningglory: 0
[6]; [21]
  Morningglory plant response rating: 0
[6]; [22]
  Morningglory plant response rating: 0
[7]; [16]
  Plant response rating (0 to 100 scale), Pigweed: 30
[7]; [21]
  Pigweed plant response rating: 90
[7]; [22]
  Pigweed plant response rating: 80
[8]; [20]
  Plant response rating (0 to 100 scale), Velvetleaf: 0
[8]; [21]
  Velvetleaf plant response rating: 10
[8]; [22]
  Velvetleaf plant response rating: 0
[9]; [21]
  Blackgrass plant response rating: 60
[9]; [22]
  Blackgrass plant response rating: 40
[10]; 500 g ai/ha, scale 0 to 100, 0 no effect, 100 complete control, preemergence
  Wheat plant response rating: 60
[10]; [21]
  Wheat plant response rating: 30
[10]; [22]
  Wheat plant response rating: 20
[11]; [21]
  Oat, Wild plant response rating: 50
[11]; [22]
  Oat, Wild plant response rating: 40
[12]
  Rice plant response rating: 50
[13]
  Sedge, Umbrella plant response rating: 80
[14]
  Ducksalad plant response rating: 80
[15]
  Barnyardgrass plant response rating: 50
